Experimental data reported in patent US20230008571A1, “CYCLIC COMPOUNDS FOR TREATING CARDIOVASCULAR DISORDERS AND WOUNDS” (University of South Florida, priority 2021, published 2023).

Biological target: T1, EGFR (Homo sapiens, UniProt P00533)
T1 construct: A549 cells were chosen due to their elevated expression of EGFR; endogenous in cells; host or cells: A549
Test: Western blot of EGF-induced EGFR phosphorylation in A549 cells
Assay type: cell-based
Description: A549 cells were chosen due to their elevated expression of EGFR.
A549 cells were seeded into a 6-well plate at a concentration of 1×10^5 cells/well. After 12 h attachment at 37° C. and 5% CO2, the cells were starved overnight in serum-reduced DMEM followed by treatment with different concentration of M-2-2 for 4 h. […] Subsequently, the cells were incubated on ice for 10 min and centrifuged at 14,000×g at 4° C. for 10 min. […] The experiments were conducted in triplicates and repeated for three times.

T1 sequence (P00533 25-1210): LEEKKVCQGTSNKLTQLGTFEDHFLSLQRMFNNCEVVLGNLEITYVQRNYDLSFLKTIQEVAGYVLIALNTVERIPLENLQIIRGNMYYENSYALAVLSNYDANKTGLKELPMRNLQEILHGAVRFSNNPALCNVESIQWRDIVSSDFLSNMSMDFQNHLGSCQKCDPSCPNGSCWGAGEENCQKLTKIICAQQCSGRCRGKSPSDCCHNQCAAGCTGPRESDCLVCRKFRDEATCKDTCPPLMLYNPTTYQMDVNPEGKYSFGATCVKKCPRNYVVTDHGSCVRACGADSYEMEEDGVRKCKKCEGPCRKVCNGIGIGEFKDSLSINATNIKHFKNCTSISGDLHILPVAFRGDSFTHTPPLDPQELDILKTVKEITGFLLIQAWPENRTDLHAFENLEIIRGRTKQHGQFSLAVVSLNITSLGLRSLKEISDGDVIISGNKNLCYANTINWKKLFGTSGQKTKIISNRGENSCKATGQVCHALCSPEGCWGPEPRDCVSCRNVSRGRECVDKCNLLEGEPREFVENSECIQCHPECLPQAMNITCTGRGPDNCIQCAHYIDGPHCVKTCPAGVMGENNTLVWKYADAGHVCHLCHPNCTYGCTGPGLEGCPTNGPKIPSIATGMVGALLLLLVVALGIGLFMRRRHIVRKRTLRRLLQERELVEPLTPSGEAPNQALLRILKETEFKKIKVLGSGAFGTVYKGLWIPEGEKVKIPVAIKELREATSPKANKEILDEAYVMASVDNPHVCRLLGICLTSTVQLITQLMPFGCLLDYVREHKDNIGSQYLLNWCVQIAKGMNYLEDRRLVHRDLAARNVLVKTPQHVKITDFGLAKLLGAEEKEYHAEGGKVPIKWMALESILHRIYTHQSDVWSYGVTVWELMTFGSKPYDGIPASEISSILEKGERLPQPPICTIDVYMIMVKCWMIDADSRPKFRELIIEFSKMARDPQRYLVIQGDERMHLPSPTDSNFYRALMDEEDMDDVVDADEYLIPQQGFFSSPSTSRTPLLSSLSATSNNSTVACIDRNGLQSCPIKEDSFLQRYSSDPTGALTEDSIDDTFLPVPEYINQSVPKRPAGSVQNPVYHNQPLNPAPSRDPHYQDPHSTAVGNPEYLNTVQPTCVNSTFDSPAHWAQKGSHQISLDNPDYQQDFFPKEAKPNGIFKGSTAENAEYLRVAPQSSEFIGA

## CC[C@H]1CN(C(=O)CCC2CCCCC2)CC(=O)N[C@@H](CC)CN(C(=O)Cc2ccc3c(c2)OCO3)CC(=O)N[C@@H](CC(C)C)CN(CC(N)=O)C(=O)CCSCc2ccc(cc2)C(=O)N[C@@H](CC(C)C)CN(C(=O)Cc2ccc3c(c2)OCO3)CC(=O)N1 [M-2-2]
Starved A549 cells, 20 μM, 4 h pretreatment, then 100 ng/mL EGF, western blot, P-EGFR/GAPDH
  effect on phosphorylation level of EGFR (P-EGFR) in the presence of EGF: enhance the activation of EGFR
Western blot with anti-phosphorylated AKT and ERK, concentration not given
  effect on downstream signal transduction of EGF stimulated EGFR: enhance
